This is an account of results in US12065445B2, “CDK2 inhibitors and methods of using the same” (Cedilla Therapeutics, Inc., priority 2021, dated 2024).

The subject of one assay is Kuramochi cells. Put plainly: BrdU Cell Proliferation Assay. The conditions noted are these: read-out: BrdU - KURAMOCHI.1: IC50. In kind it is cell-based. The method in brief:
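Kuramochi cells were seeded at 2,000 cells/well, adhered overnight, then treated with a 10-point, 3-fold compound dilution series for 4 days. Proliferation was measured by a 1-hour BrdU pulse, anti-BrdU peroxidase colorimetric ELISA and 450 nm absorbance. Values were background-subtracted and normalized to DMSO wells.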

Assay [1] deals with Kuramochi cells labeled with mApple-H2B. Put plainly: IncuCyte Cell Proliferation Assay. To be noted: 72 h. In kind it is cell-based. The method in brief:
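Cells imaged at 0 and 72 h after compound treatment (10 points, ½ log dilution, 20 μM top), with fluorescent nuclei counted. Fold change in count was normalized to DMSO wells and fitted to dose-response curves to give GI50.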

With `C[C@@H](OCC1CCCCC1)[C@H](NC(=O)[C@@H]1CN(C(=O)c2cncs2)CC12CN(C(=O)[C@H]1CC1(C)C)C2)C(=O)N1CCOCC1` [I-198], the IC50 (with Kuramochi cells; in assay [1]) was no more than 0.5 µM in each case.
With `C[C@@H](OCC1CCC(F)(F)CC1)[C@H](NC(=O)[C@@H]1CN(C(=O)c2cnn(Cc3ccc(F)cc3)c2)CC12CN(C(=O)[C@H]1CC1(C)C)C2)C(N)=O` [I-203], the IC50 (with Kuramochi cells; in assay [1]) was 0.5 to 5 µM throughout.
For `CC1(C)C[C@@H]1C(=O)N1CC2(CN(C(=O)c3cnn(Cc4ccccc4)c3)C[C@H]2C(=O)N[C@@H]2CCN(c3ccccc3)C2)C1` [I-207], the IC50 in the assay with Kuramochi cells was no more than 0.5 µM; in assay [1] it was 5 to 20 µM.
In the case of `CNC(=O)[C@@H](NC(=O)[C@@H]1CN(C(=O)c2sc(Cl)nc2C)CC12CN(C(=O)[C@H]1CC1(C)C)C2)[C@@H](C)OCC1CCCCC1` [I-208A], the 50% inhibitory concentration (IC50) (with Kuramochi cells; in assay [1]) was no more than 0.5 µM throughout.
As to `CNC(=O)[C@@H](NC(=O)[C@@H]1CN(C(=O)c2sc(C)nc2C)CC12CN(C(=O)[C@H]1CC1(C)C)C2)[C@@H](C)OCC1CCCCC1` [I-213A], the 50% inhibitory concentration (IC50) (with Kuramochi cells; in assay [1]) was 0.5 to 5 µM each time.
Consider `CNC(=O)[C@@H](NC(=O)[C@H]1CN(C(=O)c2sc(C)nc2C)CC12CN(C(=O)[C@H]1CC1(C)C)C2)[C@@H](C)OCC1CCCCC1` [I-213B], for which the values for the half-maximal inhibitory concentration (IC50) (with Kuramochi cells; in assay [1]) were greater than 10 µM and greater than 20 µM, respectively.
The like results for `CNC(=O)[C@@H](NC(=O)[C@H]1CN(C(=O)c2scnc2C2CCCC2)CC12CN(C(=O)[C@H]1CC1(C)C)C2)[C@@H](C)OCC1CCCCC1` [I-224A] were, in that order, greater than 10 µM and greater than 20 µM.
The like results for `CNC(=O)[C@@H](NC(=O)[C@@H]1CN(C(=O)c2sc(C(C)C)nc2C)CC12CN(C(=O)[C@H]1CC1(C)C)C2)[C@@H](C)OCC1CCCCC1` [I-227A] were, in that order, greater than 10 µM and greater than 20 µM.
The like results for `C[C@@H](OCC1CCC(F)(F)CC1)[C@H](NC(=O)[C@@H]1CN(C(=O)c2cn[nH]c2)CC12CN(C(=O)[C@H]1CC1(C)C)C2)C(=O)N1CCC(F)(F)CC1` [I-228A] were, in that order, greater than 10 µM and greater than 20 µM.
As for `CNC(=O)[C@@H](NC(=O)[C@@H]1CN(C(=O)c2cnc(C(C)(C)C)s2)CC12CN(C(=O)[C@H]1CC1(C)C)C2)[C@@H](C)OCC1CCCCC1` [I-229A], the IC50 (in the assay on Kuramochi cells; in assay [1]) was 0.5 to 5 µM each time.
Regarding `CNC(=O)[C@@H](NC(=O)[C@@H]1CN(C(=O)c2scnc2C(C)(C)C)CC12CN(C(=O)[C@H]1CC1(C)C)C2)[C@@H](C)OCC1CCCCC1` [I-231A], the 50% inhibitory concentration (IC50) is greater than 10 µM with Kuramochi cells and greater than 20 µM in assay [1].
For `CNC(=O)[C@@H](NC(=O)[C@@H]1CN(C(=O)c2sc(Cl)nc2Cl)CC12CN(C(=O)[C@H]1CC1(C)C)C2)[C@@H](C)OCC1CCCCC1` [I-232A], in that order: 0.5 to 5 µM and 0.5 to 5 µM.
For `CNC(=O)[C@@H](NC(=O)[C@@H]1CN(C(=O)c2nncs2)CC12CN(C(=O)[C@H]1CC1(C)C)C2)[C@@H](C)OCC1CCCCC1` [I-246], in that order: 0.5 to 5 µM and 5 to 20 µM.
For `CNC(=O)[C@@H](NC(=O)[C@@H]1CN(C(=O)c2cnn(Cc3ccccc3)c2)CC12CN(C(=O)[C@H]1CC1(C)C)C2)[C@@H](C)OCC1C[C@@H](C)C[C@@H](C)C1` (stereo partly shown) [I-249], in that order: 0.5 to 5 µM and 0.5 to 5 µM.
Regarding `Cc1ccc(CNC(=O)[C@@H]2CN(C(=O)c3cnn(Cc4ccccc4)c3)CC23CN(C(=O)[C@H]2CC2(C)C)C3)nn1` [I-252], the figures for the IC50 (with Kuramochi cells; in assay [1]) were 5 to 10 µM and 5 to 20 µM, respectively.
Turning to `CC1(C)C[C@@H]1C(=O)N1CC2(CN(C(=O)c3cnn(Cc4ccccc4)c3)C[C@H]2C(=O)N2CCN(CC3CCCCC3)C(=O)C2)C1` [I-253], the half-inhibitory concentration (IC50) is 5 to 10 µM in the assay on Kuramochi cells and 5 to 20 µM in assay [1].
The like results for `CNC(=O)[C@@H](NC(=O)C1CN(C(=O)c2cnn(Cc3ccccc3)c2)CC12CN(C(=O)[C@H]1CC1(C)C)C2)[C@@H](C)OCc1ccccn1` (stereo partly shown) [I-257] were, in that order, greater than 10 µM and greater than 20 µM.
For `CN1CC[C@@H](NC(=O)[C@@H]2CN(C(=O)c3cnn(Cc4ccccc4)c3)CC23CN(C(=O)[C@H]2CC2(C)C)C3)C1=O` [I-258], in that order: greater than 10 µM and greater than 20 µM.
For `CC1(C)C[C@@H]1C(=O)N1CC2(CN(C(=O)c3cnn(Cc4ccccc4)c3)C[C@H]2C(=O)N[C@@H]2CCN(C3CC3)C2=O)C1` [I-259], in that order: greater than 10 µM and greater than 20 µM.
`CNC(=O)[C@H](CO)NC(=O)C1CN(C(=O)c2cnn(Cc3ccccc3)c2)CC12CN(C(=O)[C@H]1CC1(C)C)C2` (stereo partly shown) [I-260]: the IC50 in the assay on Kuramochi cells is greater than 10 µM; in assay [1] it was greater than 20 µM.
For `CNC(=O)[C@@H](CO)NC(=O)C1CN(C(=O)c2cnn(Cc3ccccc3)c2)CC12CN(C(=O)[C@H]1CC1(C)C)C2` (stereo partly shown) [I-261], in that order: greater than 10 µM and greater than 20 µM.
For `CNC(=O)[C@@H](NC(=O)[C@@H]1CN(C(=O)c2cnn(Cc3ccccc3)c2)CC12CN(C(=O)[C@H]1CC1(C)C)C2)[C@@H](C)OCc1cccc(O)c1` [I-262], in that order: greater than 10 µM and greater than 20 µM.
The like results for `CNC(=O)[C@@H](NC(=O)[C@@H]1CN(C(=O)c2cnn(Cc3ccccc3)c2)CC12CN(C(=O)[C@H]1CC1(C)C)C2)[C@@H](C)OCc1ccc(Br)cc1` [I-263] were, in that order, 0.5 to 5 µM and 0.5 to 5 µM.
Regarding `Cc1cc(C(=O)N2CC(C(=O)N[C@H](C(=O)N3CCCCC3)[C@@H](C)OCC3CCCCC3)C3(C2)CN(C(=O)[C@H]2CC2(C)C)C3)[nH]n1` (stereo partly shown) [I-264], the IC50 in the assay on Kuramochi cells was greater than 10 µM; in assay [1], greater than 20 µM.
For `C[C@@H](OCC1CCCCC1)[C@H](NC(=O)C1CN(C(=O)C2CCC(=O)NC2)CC12CN(C(=O)[C@H]1CC1(C)C)C2)C(=O)N1CCCCC1` (stereo partly shown) [I-265], in that order: greater than 10 µM and greater than 20 µM.
For `CNC(=O)[C@@H](NC(=O)[C@@H]1CN(C(=O)c2cnn(Cc3ccccc3)c2)CC12CN(C(=O)[C@H]1CC1(C)C)C2)[C@@H](C)N(C)CC1CCCCC1` [I-266], in that order: greater than 10 µM and greater than 20 µM.
The like results for `CNC(=O)[C@@H](NC(=O)[C@@H]1CN(C(=O)c2cnn(Cc3ccccc3)c2)CC12CN(C(=O)NC(C)C)C2)[C@@H](C)OCC1CCCCC1` [I-267] were, in that order, greater than 10 µM and greater than 20 µM.
For `CNC(=O)[C@@H](NC(=O)[C@@H]1CN(C(=O)c2cnn(Cc3ccccc3)c2)CC12CN(C(=O)NC1CC1)C2)[C@@H](C)OCC1CCCCC1` [I-268, (S)-6-(1-benzyl-1H-pyrazole-4-carbonyl)-N8-((2S,3R)-3-(cyclohexylmethoxy)-1-(methylamino)-1-oxobutan-2-yl)-N2-cyclopropyl-2,6-diazaspiro[3.4]octane-2,8-dicarboxamide], the values for the IC50 (in the assay with Kuramochi cells; in assay [1]) were greater than 10 µM and greater than 20 µM, respectively.
For `CNC(=O)[C@@H](NC(=O)[C@@H]1CN(C(=O)c2cnn(Cc3ccccc3)c2)CC12CN(C(=O)[C@H]1CC1(C)C)C2)[C@@H](C)NCC1CCCCC1` [I-269, (S)-6-(1-benzyl-1H-pyrazole-4-carbonyl)-N-((2S,3R)-3-((cyclohexylmethyl)amino)-1-(methylamino)-1-oxobutan-2-yl)-2-((S)-2,2-dimethylcyclopropane-1-carbonyl)-2,6-diazaspiro[3.4]octane-8-carboxamide], in that order: greater than 10 µM and 5 to 20 µM.
